In one assay the target is T1, Human BOAT1 (Homo sapiens, UniProt Q695T7).
T1 construct: expressed in transfected cells
T1 sequence (Q695T7 1-634): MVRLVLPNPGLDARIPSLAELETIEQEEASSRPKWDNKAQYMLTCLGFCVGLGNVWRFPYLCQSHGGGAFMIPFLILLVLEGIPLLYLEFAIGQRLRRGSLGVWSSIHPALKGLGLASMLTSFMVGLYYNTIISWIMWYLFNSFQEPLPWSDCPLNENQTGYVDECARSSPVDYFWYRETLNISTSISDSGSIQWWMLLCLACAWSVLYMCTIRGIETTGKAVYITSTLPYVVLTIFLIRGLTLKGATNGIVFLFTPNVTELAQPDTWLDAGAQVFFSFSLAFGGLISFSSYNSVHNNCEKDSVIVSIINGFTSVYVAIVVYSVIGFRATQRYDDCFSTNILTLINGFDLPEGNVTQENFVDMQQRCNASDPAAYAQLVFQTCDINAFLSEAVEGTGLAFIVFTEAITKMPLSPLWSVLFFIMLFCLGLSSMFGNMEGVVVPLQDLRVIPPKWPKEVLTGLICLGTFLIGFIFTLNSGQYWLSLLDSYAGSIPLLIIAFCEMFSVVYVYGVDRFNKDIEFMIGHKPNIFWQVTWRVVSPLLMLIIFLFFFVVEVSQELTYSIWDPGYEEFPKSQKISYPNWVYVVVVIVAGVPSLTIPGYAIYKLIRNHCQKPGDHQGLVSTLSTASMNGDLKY
The assay can be described thus: hBOAT1 inhibitory test (phenylalanine uptake). The following applies: Human BOAT1 stable expression CHO cells; [3H]-L-phenylalanine uptake, phenylalanine 0.25 mM; radioactivity after 100 to 200 min; read-out: hB0AT1 IC50. It is filed as cell-based. As for the experimental part: A test compound dissolved in dimethyl sulfoxide (DMSO) was added to a 96 well plate for solid phase radioactivity measurement containing a scintillator at the bottom of the well (final concentration of DMSO 0.5%). DMSO alone as a control and DMSO containing N-(4-bromophenyl)-3,5-dichloro-2-hydroxybenzamide (final concentration […]) for the measurement of BOAT1 non-specific uptake were similarly added at 0.5 μL per well. Human BOAT1 stable expression CHO cells suspended in a buffer (buffer containing 96 mM sodium chloride, 2 mM potassium chloride, 1.8 mM calcium chloride, 1 mM magnesium chloride, 0.01% bovine serum albumin, and 10 mM 2-[4-(2-hydroxyethyl)-1-piperazinyl]ethanesulfonic acid) were added by 90 μL to 75000 cells/well. After standing at ordinary temperature for 30 min or longer, the cells were subjected to a phenylalanine uptake experiment. A buffer containing L-phenylalanine and [3,4,5-3H]-L-phenylalanine was added by 10 μL per well (final concentration of phenylalanine 0.25 mM), and the radioactivity of the plate bottom surface at ordinary temperature was measured with a scintillation counter over time, and the radioactivity value after 100 to 200 min was analyzed.
Regarding `O=C(/C=C/c1ccc(C(F)(F)F)cc1F)NCC(=O)N1CCN(C[C@H]2C[C@@H](C(=O)O)C2)CC1c1ccc(Cl)cc1` (mixture of isomers) [I-249, 3-[[3-(4-chlorophenyl)-4-[2-[[(E)-3-[2-fluoro-4-(trifluoromethyl)phenyl]prop-2-enoyl]amino]acetyl]piperazin-1-yl]methyl]cyclobutane-1-carboxylic acid], the IC50 came to 96 nM.
Same read-out and setting: for `COC(=O)CCCN1CCN(C(=O)CNC(=O)/C=C/c2ccc(C(F)(F)F)cc2)C(c2ccccc2)C1` (stereo not shown) [I-4] the value was 50 nM; for `COC(=O)CNc1ccc2c(c1)CCN(C(=O)CNC(=O)/C=C/c1ccc(C(F)(F)F)cc1)C2` [I-11], 81 nM.
On the same count and under the same terms, in the case of `COC(=O)Cn1nc(C)c2c1CCN(C(=O)CNC(=O)/C=C/c1ccc(C(F)(F)F)cc1)C2` [I-12] it was 89 nM.
On the same count and under the same terms, for `COC(=O)CCc1cc2c(s1)CN(C(=O)CNC(=O)/C=C/c1ccc(C(F)(F)F)cc1)CC2` [I-13] the value was 123 nM; for `CC(C)(C)OC(=O)C1CCN(c2ccc3c(c2)CCN(C(=O)CNC(=O)/C=C/c2ccc(C(F)(F)F)cc2)C3)C1` (stereo not shown) [I-26], 332 nM.
On to `CC(C)(C)OC(=O)CCc1ccc2c(c1)CCN(C(=O)CNC(=O)/C=C/c1ccc(C(F)(F)F)cc1)C2` [I-40], for which the IC50 is 996 nM.
The same measure, in the same setting: for `COc1cc(CC(=O)OC(C)(C)C)cc2c1CN(C(=O)CNC(=O)/C=C/c1ccc(C(F)(F)F)cc1)CC2` [I-43] the value was 709 nM; for `COC(=O)c1cccc(C2CCCN(C(=O)CNC(=O)/C=C/c3ccc(C(F)(F)F)cc3F)C2)c1` (stereo not shown) [I-61], 1670 nM; for `COC(=O)c1cccc(C2CN(C(=O)CNC(=O)/C=C/c3ccc(C(F)(F)F)cc3F)CCN2C)c1` (stereo not shown) [I-62], 463 nM.
As to `COC(=O)Cc1cc(F)c2c(c1)CCN(C(=O)CNC(=O)/C=C/c1ccc(C(F)(F)F)cc1F)C2` [I-118], the IC50 was determined as 42 nM.
For `O=C(O)Cc1ccc2c(c1)CCN(C(=O)CNC(=O)/C=C/c1ccc(C(F)(F)F)cc1)CC2` [I-140, 2-[3-[2-[[(E)-3-[4-(trifluoromethyl)phenyl]prop-2-enoyl]amino]acetyl]-1,2,4,5-tetrahydro-3-benzazepin-7-yl]acetic acid], the IC50 was found to be 436 nM.
The same measure, in the same setting: for `O=C(O)Cc1ccc2c(c1)CN(C(=O)CNC(=O)/C=C/c1ccc(C(F)(F)F)cc1)C2` [I-142] the value was 241 nM; for `N#Cc1c(CC(=O)O)ccc2c1CCN(C(=O)CNC(=O)/C=C/c1ccc(S(F)(F)(F)(F)F)cc1)C2` [I-152], 96 nM; for `O=C(O)Cc1cc(Cl)c2c(c1)CCN(C(=O)CNC(=O)/C=C/c1ccc(I)cc1)C2` [I-155], 84 nM.
Still for that read-out and setting: in the case of `O=C(O)CCc1ncc2c(n1)CCN(C(=O)CNC(=O)/C=C/c1ccc(C(F)(F)F)cc1)C2` [I-156] it was 251 nM.
The same measure, in the same setting: in the case of `O=C(/C=C/c1ccc(C(F)(F)F)cc1)NCC(=O)N1CCc2cc(N3CCC(C(=O)O)C3)ccc2C1` (stereo not shown) [I-160] it was 156 nM; in that of `O=C(/C=C/c1ccc(C(F)(F)F)cc1)NCC(=O)N1CCc2cc(N3CCC(C(=O)O)CC3)ccc2C1` [I-161], 259 nM.
As for `CC(Cc1ccc2c(c1)CCN(C(=O)CNC(=O)/C=C/c1ccc(C(F)(F)F)cc1)C2)C(=O)O` (stereo not shown) [I-163], the half-inhibitory concentration (IC50) stood at 223 nM.
Same read-out and setting: for `CC(CC(=O)O)c1ccc2c(c1)CCN(C(=O)CNC(=O)/C=C/c1ccc(C(F)(F)F)cc1)C2` (stereo not shown) [I-164] the value was 386 nM; for `O=C(O)Cc1cc2c(cn1)CN(C(=O)CNC(=O)/C=C/c1ccc(C(F)(F)F)cc1)CC2` [I-167], 106 nM.
The same measure, in the same setting: for `O=C(O)Cc1ccc2c(c1)CN(C(=O)CNC(=O)/C=C/c1ccc(C(F)(F)F)cc1)CC2` [I-168] the value was 447 nM.
As for `O=C(O)CCCc1ccc2c(c1)CCN(C(=O)CNC(=O)/C=C/c1ccc(C(F)(F)F)cc1)C2` [I-170], the half-inhibitory concentration (IC50) turned out to be 240 nM.
Still for that read-out and setting: in the case of `COc1cc(CC(=O)O)cc2c1CN(C(=O)CNC(=O)/C=C/c1ccc(C(F)(F)F)cc1)CC2` [I-177] it was 171 nM; in that of `O=C(O)Cc1cnn2c1CN(C(=O)CNC(=O)/C=C/c1ccc(C(F)(F)F)cc1)CC2` [I-179], 872 nM; in that of `O=C(O)COc1cc(Br)c2c(c1)CCN(C(=O)CNC(=O)/C=C/c1ccc(C(F)(F)F)cc1)C2` [I-181], 138 nM.
Take `O=C(O)Cc1ccc2c(c1)CCN(C(=O)CNC(=O)/C=C/c1ccc(C(F)(F)F)cc1Cl)C2` [I-188]: the IC50 stood at 115 nM.
With `O=C(O)Cc1ccc2c(c1)CCN(C(=O)CNC(=O)/C=C/c1ccc(C(F)(F)F)c(F)c1)C2` [I-189], the IC50 came out at 424 nM.
As to `O=C(O)Cc1cccc2c1CCN(C(=O)CNC(=O)/C=C/c1ccc(C(F)(F)F)cc1)C2` [I-192], the half-maximal inhibitory concentration (IC50) was found to be 397 nM.
On the same count and under the same terms, in the case of `O=C(O)CCc1cnn2c1CN(C(=O)CNC(=O)/C=C/c1ccc(C(F)(F)F)cc1)CC2` [I-193] it was 459 nM; in that of `O=C(O)CCc1nc2c(s1)CN(C(=O)CNC(=O)/C=C/c1ccc(C(F)(F)F)cc1)CC2` [I-200, 3-[5-[2-[[(E)-3-[4-(trifluoromethyl)phenyl]prop-2-enoyl]amino]acetyl]-6,7-dihydro-4H-[1,3]thiazolo[5,4-c]pyridin-2-yl]propanoic acid], 192 nM; in that of `N#Cc1c(CC(=O)O)ccc2c1CCN(C(=O)CNC(=O)/C=C/c1ccc(I)cc1F)C2` [I-203], 56 nM.
Still for that read-out and setting: in the case of `O=C(O)Cc1ccc2n(c1=O)CCN(C(=O)CNC(=O)/C=C/c1ccc(C(F)(F)F)cc1F)C2` [I-207] it was 579 nM; in that of `O=C(O)Cc1ncc2c(n1)CCN(C(=O)CNC(=O)/C=C/c1ccc(C(F)(F)F)cc1)C2` [I-208], 224 nM.
Still for that read-out and setting: for `CC(F)(F)c1ccc(/C=C/C(=O)NCC(=O)N2CCc3cc(CC(=O)O)ccc3C2)cc1` [I-211] the value was 263 nM; for `COCC1c2ccc(CC(=O)O)cc2CCN1C(=O)CNC(=O)/C=C/c1ccc(C(F)(F)F)cc1` (stereo not shown) [I-212], 496 nM; for `O=C(O)Cc1ccc2c(c1)C(O)CN(C(=O)CNC(=O)/C=C/c1ccc(C(F)(F)F)cc1)C2` (stereo not shown) [I-213], 156 nM.

The same assay, now with this note: Human BOAT1 stable expression CHO cells; phenylalanine uptake, phenylalanine 0.25 mM; read-out: hB0AT1 IC50.
As for `O=C(O)CCCN1CCN(C(=O)CNC(=O)/C=C/c2ccc(C(F)(F)F)cc2F)C(c2cccc(Br)c2)C1` (single isomer, unassigned) [I-292, 4-[3-(3-bromophenyl)-4-[2-[[(E)-3-[2-fluoro-4-(trifluoromethyl)phenyl]prop-2-enoyl]amino]acetyl]piperazin-1-yl]butanoic acid], the half-maximal inhibitory concentration (IC50) turned out to be 1200 nM.
Same read-out and setting: in the case of `O=C(O)CCCN1CCN(C(=O)CNC(=O)/C=C/c2ccc(C(F)(F)F)cc2F)C(c2cccc(Br)c2)C1` (single isomer, unassigned) [I-293, 4-[3-(3-bromophenyl)-4-[2-[[(E)-3-[2-fluoro-4-(trifluoromethyl)phenyl]prop-2-enoyl]amino]acetyl]piperazin-1-yl]butanoic acid] it was 39 nM.
For `O=C(O)CCCN1CCN(C(=O)CNC(=O)/C=C/c2ccc(C(F)(F)F)cc2F)C(c2ccc(Cl)cc2)C1` (single isomer, unassigned) [I-294, 4-[3-(4-chlorophenyl)-4-[2-[[(E)-3-[2-fluoro-4-(trifluoromethyl)phenyl]prop-2-enoyl]amino]acetyl]piperazin-1-yl]butanoic acid], the concentration for half-maximal inhibition (IC50) was 266 nM.
On the same count and under the same terms, for `O=C(O)CCCN1CCN(C(=O)CNC(=O)/C=C/c2ccc(C(F)(F)F)cc2F)C(c2ccc(Cl)cc2)C1` (single isomer, unassigned) [I-295, 4-[3-(4-chlorophenyl)-4-[2-[[(E)-3-[2-fluoro-4-(trifluoromethyl)phenyl]prop-2-enoyl]amino]acetyl]piperazin-1-yl]butanoic acid] the value was 51 nM.
On the same count and under the same terms, for `O=C(/C=C/c1ccc(C(F)(F)F)cc1F)NCC(=O)N1CCN(CC2CC(C(=O)O)C2)CC1c1ccc(Cl)cc1` (single isomer, unassigned) [I-296, 3-[[3-(4-chlorophenyl)-4-[2-[[(E)-3-[2-fluoro-4-(trifluoromethyl)phenyl]prop-2-enoyl]amino]acetyl]piperazin-1-yl]methyl]cyclobutane-1-carboxylic acid] the value was 747 nM; for `O=C(/C=C/c1ccc(C(F)(F)F)cc1F)NCC(=O)N1CCN(CC2CC(C(=O)O)C2)CC1c1ccc(Cl)cc1` (single isomer, unassigned) [I-297, 3-[[3-(4-chlorophenyl)-4-[2-[[(E)-3-[2-fluoro-4-(trifluoromethyl)phenyl]prop-2-enoyl]amino]acetyl]piperazin-1-yl]methyl]cyclobutane-1-carboxylic acid], 37 nM.

The record behind these values is patent US20260001849A1, “NOVEL B0AT1 INHIBITOR” (MITSUBISHI TANABE PHARMA CORPORATION, priority 2023, published 2026).
